Among the test systems are NCI-H226; T47D; COLO 205; LOX IMVI; SN12C; DMS-114; Malme-3M; UO-31; M14; SK-MEL-28; SNB-75; SF-268; EKVX; SF-295; UACC-257; A549; K562; MDA-MB-435; SNB-19; RXF 393.
Common to all, as to assay: inhibition of tumour cell growth, NCI panel, 48 h

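Each compound was tested at five concentrations against cells in 96-well plates for 48 hours. GI50: concentration for 50% inhibition of growth.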 Activity calls are given as the source filed them. Rule as the data show it: active = GI50 up to about 1.1 µM and inactive = higher.

Take `C#Cc1cccc(N2C(=O)CCC2=O)c1`: the GI50 is 17.5 µM (inactive) in the assay with NCI-H226; 18.9 µM (inactive) in the assay with T47D; 6.73 µM (inactive) in the assay on COLO 205; 16.8 µM (inactive) in the assay on LOX IMVI; 18.5 µM (inactive) in the assay with SN12C; 14.8 µM (inactive) in the assay with DMS-114. Also, the GI50 in the assay with Malme-3M was 14.7 µM (inactive); in the assay with UO-31, 17.7 µM (inactive); in the assay with M14 it was 7.62 µM (inactive); in the assay on SK-MEL-28, 18.1 µM (inactive); with SNB-75 it was 13.6 µM (inactive); in the assay on SF-268 it was 17.7 µM (inactive). Further, the GI50 was 18.3 µM (inactive) in the assay with EKVX; 15.6 µM (inactive) in the assay on SF-295; 15.6 µM (inactive) with UACC-257; 21.4 µM (inactive) in the assay on A549; 2.65 µM (inactive) with K562; 17.3 µM (inactive) in the assay with MDA-MB-435. Also, the GI50 with SNB-19 is 31.4 µM (inactive).
For `C/C1=C\[C@@H](O)C(=O)/C=C/C=C\c2csc(n2)[C@@H](C)NC(=O)C[C@@]2(CC1)[S+]([O-])SC(=O)[C@]2(C)O` (some centres undefined) [LEINAMYCIN], the GI50 was 0.0127 µM (active) in the assay on RXF 393; 0.206 µM (active) with NCI-H226; 0.00102 µM (active) in the assay on T47D; 0.0149 µM (active) with COLO 205; 0.0116 µM (active) in the assay on LOX IMVI; 0.0203 µM (active) in the assay on SN12C. Also, the GI50 with DMS-114 was 0.0353 µM (active); with Malme-3M, 0.00656 µM (active); in the assay on UO-31, 0.0308 µM (active); in the assay on M14, 0.00692 µM (active); with SK-MEL-28, 0.0214 µM (active); with SNB-75 it was 0.0252 µM (active). Further, the GI50 in the assay on SF-268 was 0.0272 µM (active); in the assay on EKVX it was 0.261 µM (active); in the assay on SF-295, 0.0446 µM (active); in the assay on UACC-257, 0.0298 µM (active); with A549 it was 0.12 µM (active); in the assay on K562 it was 0.00456 µM (active). For the same molecule, the GI50 with MDA-MB-435 was 0.0187 µM (active); in the assay with SNB-19 it was 0.284 µM (active).
As to `COC(=O)c1nc(NN)cc(O)c1CCCCCc1c(O)nc(NN)nc1C(=O)OC`, the GI50 with RXF 393 is > 100 µM (inactive); in the assay with NCI-H226 it was > 100 µM (inactive); with COLO 205, > 77.8 µM (inactive); with LOX IMVI, > 100 µM (inactive); with SN12C, > 100 µM (inactive); in the assay on DMS-114, > 95.1 µM (inactive). The GI50 in the assay on Malme-3M, in the assay on UO-31, with M14, in the assay with SK-MEL-28, in the assay with SNB-75 and with SF-268 was > 100 µM (inactive) throughout. Moreover, the GI50 in the assay with EKVX, in the assay on SF-295, in the assay on UACC-257, with A549, in the assay on K562 and in the assay on SNB-19 was > 100 µM (inactive) in each case.
As to `CCOC(=O)/C(=C\c1ccc(N(CCC#N)CCC#N)cc1C)NC(=O)/C=C/c1ccccc1`, the GI50 in the assay with RXF 393 was > 100 µM (inactive); with NCI-H226, 96.2 µM (inactive); in the assay on COLO 205 it was > 100 µM (inactive); with LOX IMVI it was > 100 µM (inactive); with SN12C, > 100 µM (inactive); in the assay on DMS-114, > 100 µM (inactive). Also, the GI50 in the assay with Malme-3M, with UO-31, with M14, in the assay on SK-MEL-28, in the assay on SNB-75 and with SF-268 was > 100 µM (inactive) throughout. Moreover, the GI50 in the assay with EKVX, in the assay with SF-295, with UACC-257, in the assay on A549, in the assay on K562 and in the assay with SNB-19 was > 100 µM (inactive) each time.
In the case of `O=C(CCN1CCCCC1)C(=Cc1ccccc1)C(=O)CCN1CCCCC1`, the GI50 in the assay on RXF 393 is 6.52 µM (inactive); in the assay on NCI-H226, > 100 µM (inactive); in the assay with COLO 205, 27.7 µM (inactive); in the assay with LOX IMVI it was 38.7 µM (inactive); in the assay on SN12C, > 74.8 µM (inactive); with DMS-114 it was 2.77 µM (inactive). Besides, the GI50 in the assay on Malme-3M was > 10 µM (inactive); in the assay with UO-31, > 100 µM (inactive); in the assay on M14 it was 5.18 µM (inactive); in the assay on SK-MEL-28, > 10 µM (inactive); in the assay with SNB-75, > 100 µM (inactive); in the assay on SF-268, > 78.9 µM (inactive). The GI50 was > 100 µM (inactive) with EKVX; > 100 µM (inactive) with SF-295; 6.75 µM (inactive) with UACC-257; > 100 µM (inactive) with A549; 19.7 µM (inactive) with K562; > 100 µM (inactive) in the assay with SNB-19.
For the molecule `Cc1ccccc1NC(=O)C(=O)CC(=O)C1CCOC1=O` (centres undefined), the GI50 with RXF 393, in the assay on NCI-H226, in the assay with COLO 205, with LOX IMVI, with SN12C and in the assay with DMS-114 was > 100 µM (inactive) in each case. The GI50 in the assay with Malme-3M, in the assay with UO-31, in the assay on M14, with SK-MEL-28, with SNB-75 and in the assay with SF-268 was > 100 µM (inactive) each time. For the same molecule, the GI50 with EKVX, with SF-295, in the assay on UACC-257, with A549, in the assay on K562 and with SNB-19 was > 100 µM (inactive) each time.
For the molecule `CC(C)(C)[Si](Nc1ccccc1)(c1ccccc1)c1ccccc1`, the GI50 in the assay with RXF 393 was 13.6 µM (inactive); with NCI-H226, 15.3 µM (inactive); in the assay with COLO 205, 15.3 µM (inactive); in the assay on LOX IMVI it was 12.2 µM (inactive); in the assay with SN12C it was 15 µM (inactive); in the assay on DMS-114, 13.2 µM (inactive). The GI50 was 22.1 µM (inactive) in the assay on Malme-3M; 5.79 µM (inactive) in the assay on UO-31; 14 µM (inactive) with M14; 16.6 µM (inactive) with SK-MEL-28; 12.1 µM (inactive) in the assay with SNB-75; 13.5 µM (inactive) with SF-268. Moreover, the GI50 in the assay with EKVX is 16 µM (inactive); in the assay with SF-295, 13.3 µM (inactive); in the assay on UACC-257 it was 14.9 µM (inactive); in the assay with A549, 13 µM (inactive); in the assay on K562, 8.26 µM (inactive); in the assay on SNB-19, 14.1 µM (inactive).

For the origin of these results see ChEMBL document CHEMBL1201862, “PubChem BioAssay data set” (2004).
